Experimental data published in patent publication US12636270B2, “Levothyroxine liquid formulations” (Fresenius Kabi USA, LLC, priority 2016, dated 2026).
Where two headings read alike, the source gives them in different places.

What was measured:
[1] = tromethamine 10 mg/mL, normal saline
Experimental: (§1) The HPLC conditions were as follows: • Column: Waters […]™ C8 (5 μm, 4.6×150 mm) HPLC column • Mobile Phase A: Sodium heptanesulfonate/Acetonitrile/Water/Methanol/H3PO4 (4.023 g/800 mL/1600 mL/1600 mL/4 mL) • Mobile Phase B: Sodium heptanesulfonate/Acetonitrile/Water/Methanol/H3PO4 (2.013 g/1000 mL/100 mL/900 mL/2 mL) • Diluent: 0.01 N NaOH • Column temperature: 25° C. • Flow rate: 1.5 mL/min • Injection volume: 40-200 μL • Autosampler temperature: 5° C. • Detection: UV at 225 nm • Separation mode: Gradient Gradient Program:
The effect of pH on levothyroxine stability was further tested in samples having a pH 9.5-11.5. Separate samples containing levothyroxine sodium at a concentration of 20 mcg/mL or 100 mcg/mL, tromethamine at a concentration of 10 mg/mL in normal saline were adjusted to various pH levels. 5 mL of each sample was filled into 10 cc amber tubing vials, and the vials were stoppered with 20 mm stoppers under nitrogen. The samples were stored at temperatures of 25° C., 40° C., and 55° C. The samples stored at 55° C. were analyzed by HPLC at 1 W and 2 W of storage. The samples stored at 25° C. and 40° C. were analyzed by HPLC at 2M of storage using the HPLC conditions described hereinabove.

[2] = 55° C., 1 W, 20 mcg/mL, glycerol 100 mg/mL, normal saline
Experimental: as §1
Separate samples containing levothyroxine sodium at a concentration of 20 mcg/mL and glycerol at a concentration of 100 mg/mL in normal saline were adjusted to pH levels of 7, 8, and 9. 5 mL of each sample was filled into 10 cc amber tubing vials, and the vials were stoppered with 20 mm stoppers under nitrogen. The samples were stored at a temperature of 55° C. The samples were analyzed by HPLC at 1 week of storage using the HPLC conditions described in Example 1. The results for liothyronine, largest unknown impurity, and total impurities as determined by peak area percent are set forth in Table 7.

[3] = 25° C., 2 M, pH 10.4, 20 mcg/mL
[4] = 25° C., 2 M, pH 10.4, 100 mcg/mL
[5] = 25° C., 2 M, pH 11.5, 20 mcg/mL
[6] = 40° C., 2 M, pH 10.4, 20 mcg/mL
[7] = 40° C., 2 M, pH 10.4, 100 mcg/mL
[8] = 40° C., 2 M, pH 11.5, 20 mcg/mL
[9] = 55° C., 1 W, pH 10.4, 20 mcg/mL
[10] = 55° C., 1 W, pH 10.4, 100 mcg/mL
[11] = 55° C., 1 W, pH 11.5, 20 mcg/mL
[12] = 55° C., 2 W, pH 10.4, 20 mcg/mL
[13] = 55° C., 2 W, pH 10.4, 100 mcg/mL
[14] = 55° C., 2 W, pH 11.5, 20 mcg/mL

N[C@@H](Cc1cc(I)c(Oc2cc(I)c(O)c(I)c2)c(I)c1)C(=O)[O-].[Na+] [Levothyroxine Na, 4-(4-hydroxy-3,5-diiodophenoxy)-3,5-diiodo-L-phenylalanine sodium]
% Liothyronine ([1]; 25° C., 2 M, pH 9.5, 20 mcg/mL): 0.34% | % largest unknown impurity ([1]; 25° C., 2 M, pH 9.5, 20 mcg/mL): 0.11% | % total impurities ([1]; 25° C., 2 M, pH 9.5, 20 mcg/mL): 0.7% | % Liothyronine [1, 3]: 0.17% | % largest unknown impurity [1, 3]: 0.20% | % total impurities [1, 3]: 0.6% | % Liothyronine [1, 4]: 0.23% | % largest unknown impurity [1, 4]: 0.11% | % total impurities [1, 4]: 0.6% | % Liothyronine [1, 5]: 0.34% | % largest unknown impurity [1, 5]: 15.4% | % total impurities [1, 5]: 19.6% | % Liothyronine ([1]; 40° C., 2 M, pH 9.5, 20 mcg/mL): 1.00% | % largest unknown impurity ([1]; 40° C., 2 M, pH 9.5, 20 mcg/mL): 0.14% | % total impurities ([1]; 40° C., 2 M, pH 9.5, 20 mcg/mL): 1.44% | % Liothyronine [1, 6]: 0.38% | % largest unknown impurity [1, 6]: 0.22% | % total impurities [1, 6]: 0.88% | % Liothyronine [1, 7]: 0.49% | % largest unknown impurity [1, 7]: 0.10% | % total impurities [1, 7]: 0.8% | % Liothyronine [1, 8]: 0.31% | % largest unknown impurity [1, 8]: 9.2% | % total impurities [1, 8]: 12.1% | % Liothyronine ([1]; 55° C., 1 W, pH 9.5, 20 mcg/mL): 0.9% | % largest unknown impurity ([1]; 55° C., 1 W, pH 9.5, 20 mcg/mL): 0.09% | % total impurities ([1]; 55° C., 1 W, pH 9.5, 20 mcg/mL): 1.2% | % Liothyronine [1, 9]: 0.2% | % largest unknown impurity [1, 9]: 0.09% | % total impurities [1, 9]: 0.5% | % Liothyronine [1, 10]: 0.3% | % largest unknown impurity [1, 10]: 0.11% | % total impurities [1, 10]: 0.7% | % Liothyronine [1, 11]: 0.1% | % largest unknown impurity [1, 11]: 0.08% | % total impurities [1, 11]: 0.4% | % Liothyronine ([1]; 55° C., 2 W, pH 9.5, 20 mcg/mL): 1.9% | % largest unknown impurity ([1]; 55° C., 2 W, pH 9.5, 20 mcg/mL): 0.1% | % total impurities ([1]; 55° C., 2 W, pH 9.5, 20 mcg/mL): 2.0% | % Liothyronine [1, 12]: 0.4% | % largest unknown impurity [1, 12]: 0.1% | % total impurities [1, 12]: 0.9% | % Liothyronine [1, 13]: 0.8% | % largest unknown impurity [1, 13]: 0.11% | % total impurities [1, 13]: 1.1% | % Liothyronine [1, 14]: 0.2% | % largest unknown impurity [1, 14]: 0.1% | % total impurities [1, 14]: 0.4% | % Liothyronine ([2]; pH 7): 3.6% | % largest unknown impurity ([2]; pH 7): 1.16% | % total impurities ([2]; pH 7): 5.3% | % Liothyronine ([2]; pH 8): 3.4% | % largest unknown impurity ([2]; pH 8): 1.30% | % total impurities ([2]; pH 8): 5.4% | % Liothyronine ([2]; pH 9): 2.4% | % largest unknown impurity ([2]; pH 9): 0.82% | % total impurities ([2]; pH 9): 3.8%
